Entries after “also recorded” stand apart in the source; their conditions may differ.

These results are taken from patent US20240150719A1, “MAGNETIC SHEAR BIOREACTOR APPARATUS AND METHODS” (THE BOARD OF REGENTS OF THE UNIVERSITY OF TEXAS SYSTEM, priority 2021, published 2024).

One assay has as its system COX2 protein. The assay is described as follows: Western blot of COX2 protein in fluid shear stressed human MSCs. Particulars: BAY11-7085 10 μM; human MSC, 8 hours of fluid shear stress. It is filed as cell-based. The procedure: FIG. 11 illustrates representative Western blots showing increased intracellular COX2 protein, which is reduced by NF-kB antagonist BAY11-7085 (10 μM).
A pilot study was conducted to provide proof of principle that fluid shear stress can be used to condition stem cells, alter gene expression, and enhance functional activities. To exemplify the conditioning activity of shear stress of the type provided by the present system, but on a much smaller analytical scale, force (shear stress) was applied using custom fabricated slides or IBIDI® small-scale microfluidics channel slides obtained from IBIDI, LLC. (Verona, WI, USA). Human samples were harvested from bone marrow (BM), amniotic fluid (AF), or adipose (AD) tissue, processed for isolation and expansion of hMSC, and stored frozen. […] The number of live cells present was determined using trypan blue dye exclusion. Live cell counts were determined on a hemacytometer and the cells were resuspended to obtain the desired concentration for each assay (see Table 1). […]
Similarly it was determined utilizing commercially available ELISAs that the media from human MSCs cultures that had been subject to fluid shear stress also contained immunomodulatory proteins, such as prostaglandin E2. […]
For orientation: A western blot detects proteins with antibodies after separation by electrophoresis.

For assay [1], the system named is TNF-α secretion by splenocytes. The assay is described as follows: TNF-α cytokine suppression assay: MSCs in static co-culture with LPS- or PHA-activated splenocytes. It is filed as cell-based, mouse. The settings on record: for ability of shear treated MSC to suppress TNF-α production: inhibitor 10 μM, six MSC donor lines, compared to Static Vehicle. The procedure:
FIG. 12 illustrates TNF-αcytokine suppression assays that highlight functional enhancement of MSC immunomodulation. Human MSCs preconditioned by mechanical force (15 dyne/cm2 shear stress for 3 hours) are placed in static co-culture with lipopoly-saccharide (LPS) or phytohaemagglutinin (PHA)-activated splenocytes including macrophages, neutrophils, NK, B, and T cells. […] Lower values correspond to greater anti-inflammatory potency. hBM MSC, human bone marrow MSC; hAF MSC, amniotic fluid MSC; hAD MSC, adipose-derived MSC. P-values calculated by paired t-test, equal variance.
Asterisks indicate p<0.001 compared to Static Vehicle. n=6 indicates six different MSC donor lines included in data shown.
(§1) Similarly it was determined utilizing commercially available ELISAs that the media from human MSCs cultures that had been subject to fluid shear stress also contained immunomodulatory proteins, such as prostaglandin E2. In addition, Western blotting confirmed elevated protein levels (translation) of COX2, TSG6, and IL1RN. Actin protein expression levels, which are constant, were used as a control for baseline protein expression. […] It was also determined that this induction could be abrogated by the addition of 10 uM of the NF-kappa B antagonist BAY11-7085 (FIG. 11). Furthermore by utilizing commercially available ELISAs, it was determined that the media from human MSCs cultures that had been subject to fluid shear stress for as little as 3 hours had immunosuppressive activity, as evidenced by the 10-50% reduction in TNF-α when treated hMSCs were co-cultured with activated immune cells from the spleen (FIG. 12).

The subject of another assay is human amniotic fluid MSC. The assay can be described thus: Priming agents combined with shear stress: anti-inflammatory signaling in human amniotic MSC line. It is filed as cell-based. The procedure:
FIG. 14 illustrates that priming agents complement shear-induced anti-inflammatory signaling. Darkened bars represent treatment combinations that indicate a substantial induction of the pathway by shear stress and cytokines (IFN-γ, 20 ng/ml; TNF-α, 50 ng/ml). In this low-performance human amniotic MSC line, TSG6 was induced by shear stress only. IDO was induced by IFN-γ only. hAF MSC, human amniotic fluid MSC.
as §1

In the case of `CC(C)(C)c1ccc(S(=O)(=O)/C=C/C#N)cc1` [BAY11-7085], in the assay with COX2 protein, the “shear-induced intracellular COX2 protein (Western blot)” value is given as “abrogated; also recorded: reduced”. Moreover, in assay [1], the “ability of shear treated MSC to suppress TNF-α production” value was “abrogate the positive effects of shear stress”.
Regarding `COc1ccc2c(c1)c(CC(=O)O)c(C)n2C(=O)c1ccc(Cl)cc1` [Indomethacin], in assay [1], the “ability of shear treated MSC to suppress TNF-α production” value was “abrogate the positive effects of shear stress”.
Still for that read-out and setting: the value for `CS(=O)(=O)Nc1ccc([N+](=O)[O-])cc1OC1CCCCC1` [NS-398] was “abrogate the positive effects of shear stress”.
On to `CCCCC(C)(C)C(O)C=CC1C(O)CC(=O)C1CC=CCCCC(=O)O` (stereo not shown) [dmPGE2, 16,16′-dimethyl prostaglandin E2], for which the “TNF-α production with ectopic dmPGE2” value in assay [1] (dmPGE2 10 μM) is “reduced TNF-α to levels produced in the presence of sheared MSCs; also recorded: mimics MSC suppression”.
As to IFN-γ: cytokine used as priming agent, the IDO induction result with human amniotic fluid MSC (IFN-γ 20 ng/ml, low-performance human amniotic MSC line) was “induced”. Besides, in the assay with human amniotic fluid MSC (addition of IFN-γ to sheared MSCs versus MSC not subject to shear), the “induction of COX2 and HMOX1 in sheared MSCs with added priming agent” value is reported as “greater induction”.
